Test results from patent EP0728482A2, “Use of hcp specific compounds to enhance erythropoiesis” (SMITHKLINE BEECHAM CORPORATION, priority 1995, dated 1996).
“Also recorded” adds a separate entry of the source.

Assays:
human src SH2 domain = target: T1, human src SH2 domain (Homo sapiens, UniProt P12931); assay: ELISA-based SH2 domain / pY peptide binding assay, src SH2 domain; conditions: for Ki: Ki calculated from IC50 with the expanded equation; for IC50: inhibition of binding of 0.1 uM biotinylated pY peptide to SH2 domain fusion protein
T1 construct: made in house; host or cells: E. coli AR120
Experimental: (§1) The inhibitory activity of compounds at the different human SH2 domains was determined in vitro using SH2 domains expressed as fusion proteins in E. coli. The SH2 domains used herein were the human forms of the src SH2 domain, Grb2 SH2 domain, lck SH2 domain, fyn SH2 domain, SH-PTP2 SH2 domain, p85 SH2 domain and hcp SH2 domain.
The fusion proteins containing the src, lck and hcp SH2 domains were expressed as the general sequence: DET1-DET2-spacer-ek-SH2, where DET1, DET2, spacer, ek and SH2 are as described below. DET1 ("defined epitope tag 1") (SEQ ID NO: 1) is an 11 amino acid sequence found in the Human Immunodeficiency Virus Type 1 (HIV-1) envelope protein gp120 (or gp160). Monoclonal antibodies to various epitopes of HIV-1 gp120 (or gp 160) are known in the art, see, for example U.S. Patent 5,166,050. One preferred example is monoclonal antibody 178.1 (see, e.g., Thiriart et al., J. Immunol., 143:1832-1836 (1989)), which was prepared by immunization of mice with a yeast-expressed HIV-1 gp160 molecule from strain BH10 (Ratner et al., Nature, 313:277-284 (1985)). This tag was used for detection of expression (by Western blot), for purification of the protein (by affinity chromatography), and for configuring assays in which the fusion protein was captured or immobilized using the 178.1 antibody. DET2 is a hexa-histidine sequence tag (SEQ ID NO: 2) which binds to nickel-containing resins and was used for purification purposes. Spacer (SEQ ID NO: 3) was utilized to design a BamH1 restriction site at the indicated position of the construct. The term -ek-refers to a recognition sequence (SEQ ID NO: 4) for the enterokinase protease which provides for the optional removal of the tags from the SH2 domain, thus producing an SH2 domain that contains no extraneous amino acids. SH2 domains which contain no extraneous amino acids are preferable to tagged protein for crystallography studies. SH2 refers to the SH2 domains of different proteins.
Procedure 2: Cloning, expression and purification of human src SH2 domain containing tags and an enterokinase proteolytic cleavage site (DET1-DET2-spacer-ek-src SH2).
A DNA sequence encoding protein ek-src SH2 was PCR amplified from a cDNA clone containing the human src gene (c-src SH2 DNA sequence identical to that described in Takeya,T. and Hanafusa, H, 1983 Cell 32:881-890) using the following primers: [formula]
The PCR product was digested with BamHI and XbaI, followed by isolation of the digested fragment on an agarose gel. The fragment was ligated into BamHI-XbaI-digested expression vector containing the tagged chicken src gene DET1-DET2-spacer-SH2 described in Procedure 1 above. In that vector, the BamHI site is located between the coding regions for DET2 and SH2, and the XbaI site is located after the 3' end of the SH2 coding region. The ligation reaction was used to transform E. coli MM294cI^+. The construct DET1-DET2-spacer-ek-src SH2 was confirmed by DNA sequencing (SEQ ID NO: 5) and induced in E. coli strain AR120 as described in Procedure 1 above. A Coomassie-Blue-stained, Western-blot-positive induced protein band with an apparent molecular weight of 16,000 was observed after nalidixic acid induction.
Cells were lysed at neutral pH by sonication in the presance of lysozyme. After centrifugation, the soluble extract was chromatographed on a Ni^++NTA column. After washing the column with equilibration buffer (Tris buffer pH 8 containing 0.5 M Nacl) and the same buffer containing 15 mM imidazole, the protein was eluted in highly purified form with 25 mM imidazole in equilibration buffer.
The binding assays for the SH2 domains and pY peptides were performed in an ELISA-based 96 well plate assay. […]

human hcp SH2 domain = assay: ELISA-based SH2 domain / pY peptide binding assay, hcp SH2 domain; conditions: hcp SH2 domain versus src, lck, fyn, SH-PTP2, p85, Grb2 SH2 domains
Experimental: as §1
The fusion proteins containing the src, lck and hcp SH2 domains were expressed as the general sequence: DET1-DET2-spacer-ek-SH2, where DET1, DET2, spacer, ek and SH2 are as described below. DET1 ("defined epitope tag 1") (SEQ ID NO: 1) is an 11 amino acid sequence found in the Human Immunodeficiency Virus Type 1 (HIV-1) envelope protein gp120 (or gp160). Monoclonal antibodies to various epitopes of HIV-1 gp120 (or gp 160) are known in the art, see, for example U.S. Patent 5,166,050. One preferred example is monoclonal antibody 178.1 (see, e.g., Thiriart et al., J. Immunol., 143:1832-1836 (1989)), which was prepared by immunization of mice with a yeast-expressed HIV-1 gp160 molecule from strain BH10 (Ratner et al., Nature, 313:277-284 (1985)). This tag was used for detection of expression (by Western blot), for purification of the protein (by affinity chromatography), and for configuring assays in which the fusion protein was captured or immobilized using the 178.1 antibody. […]

B6D2F1 female mice = assay: murine reticulocyte assay (Hayakawa assay); format: in vivo; conditions: oral gavage, once a day for 7 days
Experimental: The efficacy of hcp SH2 domain antagonist to enhance erythropoiesis is related to their ability to increase reticulocyte production in the murine reticulocyte assay (Hayakawa T, et al. Biologicals 20; 253 (1992) and Hayakawa T, et al. Biologicals 20; 243 (1992), (collectively hereinafter 'Hayakawa')).
L-3,5-Dibromo-3'-(6-oxo-3(1H)-pyridazinylmethyl)-thyronine (Compound 2) was tested for its in vivo potency to increase reticulocyte production in the Hayakawa assay.
To perform the experiment a total of 12 B6D2F1 female mice were used. The animals were administered Compound 2 (the compound was dissolved in water, pH 11, and administered by oral gavage) once a day for 7 days. At the end of the treatment period blood was collected from the animals and reticulocyte count was determined by known methods. (Hayakawa)

Compound	Ki (human src SH2 domain)	IC50 (human src SH2 domain)	binding affinities/inhibitory concentrations at the hcp SH2 domain than at other SH2 domains (human hcp SH2 domain)	Reticulocytes (B6D2F1 female mice; 200 mg/kg/day)	Reticulocytes (B6D2F1 female mice; 400 mg/kg/day)	Reticulocytes (B6D2F1 female mice; 800 mg/kg/day)
Cc1nnc(SCC2=C(C(=O)O)N3C(=O)[C@@H](NC(=O)C(N)c4ccc(C(=O)O)cc4)[C@H]3SC2)s1 (stereo partly drawn) [Compound 1, 7-[D,L-α-Amino-α-(4-carboxyphenyl)acetamido]-3-[2-(5-methyl-1,3,4-thiadiazolyl)thiomethyl]Δ^3-cephem-4-carboxylic Acid]	7 µM	6 µM				
Cc1nc2sc3c(c2c2c1c(=O)[nH]n2C)CCC1(C3)OCCO1 [Compound 5, 1,4-Dimethyl-8,8-ethylenedioxy-2,3,7,8,9,10-hexahydro-1H-benzo[b]thieno[2,3-b]pyrazolo[3,4-d]pyridin-3-one]	28 µM	63 µM	greater than fifty-fold higher; also recorded: greater than one hundred-fold higher			
Cc1ccc(C(=O)c2ccc(C(=O)c3ccc(CC=O)cc3)cc2)cc1 [Compound 4, 4-[4-(4-Methylbenzoyl)benzoyl]phenylacetaldehyde]	40 µM	40 µM				
N[C@@H](Cc1cc(Br)c(Oc2ccc(O)c(Cc3ccc(=O)[nH]n3)c2)c(Br)c1)C(=O)O [Compound 2, L-3,5-Dibromo-3'-(6-oxo-3(1H)-pyridazinylmethyl)-thyronine]				321.0 ± 46.3 10^9/L	310.8 ± 24.8 10^9/L	375.2 ± 51.6 10^9/L
Cc1nc2sc3c(c2c2[nH][nH]c(=O)c12)CCC1(C3)OCCO1 [Compound 3, 8,8-Ethylenedioxy-2,3,7,8,9,10-hexahydro-4-methyl-1H-benzo[b]thieno[2,3-b]pyrazolo[3,4-d]pyridin-3-one]	6 µM	16.1 µM				
CCCNC(=O)[C@H]1CC[C@H](CNC(=O)/C=C/c2ccc(C=O)cc2)CC1 [Compound 9, 4-formyl-E-cinnamido-trans-4-methyl-cyclohexyl-N-(propyl) carboxamide]	55 µM	131 µM				
4-acetamido-benzamido-trans-4-methyl-cyclohexyl-N-1-(amino-R-2-(methoxy methyl)-pyrrolidine) carboxamide [Compound 8]	12 µM	16 µM				
